Test results taken from ChEMBL document CHEMBL1134154, “1-Alkyl-3-amino-5-aryl-1H-[1,2,4]triazoles: novel synthesis via cyclization of N-acyl-S-methylisothioureas with alkylhydrazines and their potent corticotropin-releasing factor-1 (CRF(1)) receptor antagonist activities” (Bioorg Med Chem Lett, 2001).
pKi: −log10 of the molar value.

Columns and labels:
[1] = target: T1, Corticotropin-releasing factor receptor 1 (Homo sapiens, UniProt P34998); assay: Inhibition of [125I]o-CRF binding to human Corticotropin releasing factor receptor 1 expressed in CHO cells.; format: cell-based
T1 sequence (P34998 whole entry): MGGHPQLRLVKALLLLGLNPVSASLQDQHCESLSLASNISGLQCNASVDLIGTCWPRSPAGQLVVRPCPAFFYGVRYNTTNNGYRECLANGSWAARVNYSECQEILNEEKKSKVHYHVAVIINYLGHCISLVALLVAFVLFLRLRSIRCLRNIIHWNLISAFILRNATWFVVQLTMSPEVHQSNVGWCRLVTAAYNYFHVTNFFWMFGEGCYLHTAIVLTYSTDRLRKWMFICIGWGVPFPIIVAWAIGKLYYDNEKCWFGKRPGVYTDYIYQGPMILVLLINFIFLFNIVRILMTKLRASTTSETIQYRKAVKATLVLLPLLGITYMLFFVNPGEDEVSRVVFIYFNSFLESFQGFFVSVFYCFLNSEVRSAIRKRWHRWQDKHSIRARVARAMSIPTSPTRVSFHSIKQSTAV

[2] = target: T1, Corticotropin-releasing factor receptor 1; assay: Tested for in vivo activity and binding affinity to human Corticotropin releasing factor receptor 1; In activie
[3] = target: T2, Corticotropin-releasing factor receptor 1 (Homo sapiens) (UniProt P34998); assay: Binding affinity to cloned human Corticotropin releasing factor receptor 1 expressed in CHO cells using [125I]o-CRF as radioligand; format: cell-based; conditions: concentration not given here
T2 sequence (whole entry): T1 sequence (P34998 whole entry)

[4] = target: T1, Corticotropin-releasing factor receptor 1; assay: Binding affinity to cloned human CRF1 receptor expressed in CHO cells using [125I]o-CRF as radioligand at 10 uM concentration; In activie; format: cell-based
[5] = target: T1, Corticotropin-releasing factor receptor 1; assay: Binding affinity to cloned human Corticotropin releasing factor receptor 1 expressed in CHO cells using [125I]o-CRF as radioligand at 10 uM concentration; In activie; format: cell-based

| SMILES | pKi [1] | other results |
| --- | --- | --- |
| CCCCN(CC)c1nc(C)nc2c1c(C)cn2-c1c(C)cc(C)cc1C [CP-154526] | – | Ki [2]: Not Active |
| CCCN(c1nc(-c2c(C)cc(C)cc2C)n(CC)n1)C(C1CC1)C1CC1 | 6.51 | – |
| C=CCn1nc(N(CCC)C(C2CC2)C2CC2)nc1-c1ccc(Cl)cc1Cl | – | inhibition [3]: 77% |
| CCCN(c1nc(-c2ccc(Br)cc2C)n(C)n1)C(C1CC1)C1CC1 | 8.00 | – |
| CCCN(c1nc(-c2c(C)cc(C)cc2C)n(C)n1)C(C1CC1)C1CC1 | 6.92 | – |
| CCCN(CC1CC1)c1nc(-c2ccc(Cl)cc2Cl)n(C)n1 | < 5.00 | – |
| CCCN(CCC)c1nc(-c2ccc(Cl)cc2Cl)n(CCO)n1 | 7.85 | Ki [4]: Not Active |
| CCCN(CC1CC1)c1nc(-c2cccc3cc(OC)ccc23)n(C)n1 | – | Ki [5]: Not Active |
| CCCN(CC1CC1)c1n[nH]c(-c2cccc3cc(OC)ccc23)n1 | – | Ki [5]: Not Active |
| CCCN(c1nc(-c2ccc(Cl)cc2OC)n(C)n1)C(C1CC1)C1CC1 | 7.59 | – |
| CCCN(CCC)c1nc(-c2ccc(Cl)cc2Cl)n(C)n1 | 5.59 | – |
| C=CCn1nc(N(CCC)C(C2CC2)C2CC2)nc1-c1c(C)cc(C)cc1C | 5.66 | – |
| CCCN(CC1CC1)c1nc(C)nc(Nc2c(Cl)cc(Cl)cc2Cl)c1Cl | – | Ki [2]: Not Active |
| CCCN(c1nc(-c2ccc(Cl)cc2)n(C)n1)C(C1CC1)C1CC1 | 7.48 | – |
| CCCN(CCC)c1n[nH]c(-c2ccc(Cl)cc2Cl)n1 | – | Ki [5]: Not Active |
| CCCN(c1nc(-c2cc(F)c(Cl)cc2Cl)n(C)n1)C(C1CC1)C1CC1 | 7.82 | – |

Further lines, with some results ahead:

| pKi [1] | SMILES | other results |
| --- | --- | --- |
| 7.10 | CCCN(c1nc(-c2ccc(Cl)cc2Cl)n(CC)n1)C(C1CC1)C1CC1 | – |
| < 5.00 | CCCN(c1nc(-c2ccc(Cl)cc2Cl)nn1C)C(C1CC1)C1CC1 | – |
| 8.05 | CCCN(c1nc(-c2ccc(Cl)cc2Cl)n(C)n1)C(C1CC1)C1CC1 | – |
| 7.66 | CCCN(c1nc(-c2ccc(Cl)cc2C)n(C)n1)C(C1CC1)C1CC1 | – |
| 5.62 | CCCN(c1n[nH]c(-c2ccc(Cl)cc2Cl)n1)C(C1CC1)C1CC1 | – |
